# Laboratory results: article PMC10313368 (The Journal of Clinical Investigation, 2023)
# Tests used:
# HIF-2α = HIF-2α (Homo sapiens, UniProt Q99814); assay: Immunoblot of HIF-2α accumulation in D120 hiPSC-derived retinal organoids in 1% O2; assay type: cell-based; design: endogenous in cells; details: 1% O2 12 hours, 32-134D
# Protocol: An hiPSC line derived from CD34^+ cord blood was used in this study (A18945, Thermo Fisher Scientific) ([70]). Undifferentiated hiPSCs and derived retinal organoids were routinely tested for mycoplasma contamination by PCR. Cell culture, retinal differentiation, and organoid formation were conducted as previously described ([71]). Retinal organoids at D120 were used for experiments.
# Immunoblot assays. Cells, neurosensory retina, and D120 retinal organoid lysates were subjected
# to 4–15% gradient SDS/PAGE (Invitrogen). Immunoblot (Western blot or WB) assays were
# performed as previously described (1). […]
# HIF-1α = biological target: T1, HIF-1α (Mus musculus, UniProt Q61221); assay: Western blot of HIF-1α in neurosensory retina of STZ-diabetic mice; assay type: in vivo; details: IP 32-134D 40 or 80 mg/kg; Supplementary Figure 3
# T1 construct: from tissue; host or cells: retina of C57BL/6 OIR pups
# T1 sequence (Q61221 whole entry): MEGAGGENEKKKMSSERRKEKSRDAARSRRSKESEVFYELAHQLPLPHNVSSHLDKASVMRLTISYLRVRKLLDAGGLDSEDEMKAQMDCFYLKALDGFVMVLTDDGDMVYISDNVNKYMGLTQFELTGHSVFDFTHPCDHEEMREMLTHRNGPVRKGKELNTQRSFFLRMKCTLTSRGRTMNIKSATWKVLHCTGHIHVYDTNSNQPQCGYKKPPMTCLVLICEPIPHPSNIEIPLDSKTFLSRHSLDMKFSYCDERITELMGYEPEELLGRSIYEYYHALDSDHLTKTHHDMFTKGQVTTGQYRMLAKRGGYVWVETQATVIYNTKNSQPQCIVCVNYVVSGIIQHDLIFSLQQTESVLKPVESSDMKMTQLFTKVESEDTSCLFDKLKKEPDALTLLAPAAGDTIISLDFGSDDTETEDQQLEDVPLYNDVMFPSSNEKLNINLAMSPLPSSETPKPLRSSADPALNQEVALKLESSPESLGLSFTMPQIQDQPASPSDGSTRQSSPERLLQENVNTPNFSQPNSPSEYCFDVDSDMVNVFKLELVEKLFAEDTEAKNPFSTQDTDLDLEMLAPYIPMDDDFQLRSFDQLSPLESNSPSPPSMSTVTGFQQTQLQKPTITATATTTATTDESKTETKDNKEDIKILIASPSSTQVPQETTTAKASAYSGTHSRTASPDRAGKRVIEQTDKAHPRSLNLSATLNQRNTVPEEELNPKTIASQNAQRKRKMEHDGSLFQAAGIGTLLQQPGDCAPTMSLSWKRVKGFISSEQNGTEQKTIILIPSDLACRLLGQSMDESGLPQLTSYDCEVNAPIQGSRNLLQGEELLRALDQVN
# Protocol: Immunoblot assays. Cells, neurosensory retina, and D120 retinal organoid lysates were subjected to 4–15% gradient SDS/PAGE (Invitrogen). Immunoblot (Western blot or WB) assays were performed as previously described (1).
# Reverse transcription and quantitative real-time PCR. Total RNA was isolated from cultured cells or retinas with PureLinkTM RNA Mini Kit (Invitrogen #12183025), and cDNA was prepared with MuLV Reverse Transcriptase (Applied Biosystems). Quantitative real-time PCR was performed with Power SYBR Green PCR Master Mix (Applied Biosystems) and MyiQ Real-Time PCR Detection System (Bio-Rad). Normalization was done using cyclophilin A for mouse tissue and human cell lines. Primers are listed in Supplemental Table 2.
# (§1) Angiogenesis array. Total RNA was isolated from MIO-MI cells (8 hours) and HUVECs (16 […]
# cDNA was prepared with QuantiTect® Reverse Transcription Kit (Qiagen, Cat# 205311). […]
# STZ-induced diabetes mouse model. […] Blood glucose was measured on experimental day 28 after 16 hours fasting and mice with blood glucose level > 250 mg/dL were considered […]
# the peritoneal cavity of neonatal C57BL/6 mice and STZ mice at indicated times, and the retinal vasculature and lysates for WB and qPCR were assessed at P17. […]
# MIO-M1 cells = assay: mRNA angiogenesis array (TaqMan Array qPCR) in MIO-M1 cells; assay type: cell-based, human
# Protocol: as §1
# cDNA was prepared with QuantiTect® Reverse Transcription Kit (Qiagen, Cat# 205311). RT-qPCR assay was performed with pre-configured TaqMan Array 96-Well FAST Plate for human angiogenic gene expression (Applied Biosystems, Inc) following the manufacture’s protocol. Each plate contains pre-defined genes including 18S, GAPDH and HPRT1 endogenous controls.
# TaqMan Array plates were prepared by loading on each well 5 μl of cDNA sample (30 ng) with nuclease-free water and 5 μl of TaqMan™ Fast Advanced Master Mix (Applied Biosystem, Cat# […]
# 4444554). The reaction was performed using the QuantStudio™ 3 Flex Real‐Time PCR System as follows: 2 minutes at 50°C (stage 1); 10 minutes at 95°C (stage 2); 15 seconds at 95°C and 1 minutes at 60°C for 40 cycles (stage 3). The data were analyzed by using HPRT1 as endogenous […]
# The clustering heatmaps were produced with “pheatmap” library in R with scale = row and clustering method = complete.
# HUVEC cells, Euclidean distance was used to quantify the difference in qPCR screening. The Euclidean distance was calculated using “dist” function from R’s default stat library that measures
# [1] = tested on: differentially expressed genes (DEGs) in OIR mice; assay: Bulk RNA-Seq of neurosensory retina of OIR mice; assay type: in vivo, mouse
# Excerpt: Bulk RNAseq. P17 mouse pups from non-OIR (control), OIR injected with DMSO (vehicle) at P12 […]
# enucleated, and their retinas separated from the RPE/choroid. Total RNA was isolated using miRNeasy mini kit (QIAGEN). RNA was quantified using Nanodrop (ND-1000 spectrophotometer; Thermo Scientific). The RNA samples were sequenced by Novogene […]
# Raw data (fastq files), data quality control, and genome alignment were generated by Novogene company. DESeq2 (6) was used for differentially expressed genes (DEG) analysis. Genes with adjusted P < 0.05 and log2 fold change > 1 were identified as DEGs. Normalized counts were used to produce clustering heatmaps and “complete” was the default method in the clustering analysis.
# Gene Ontology (GO) analysis (biological process) was done using DAVID Bioinformatics Resources (7, 8). FDR < 0.05 was used as the threshold for enriched biological process. […]
# [2] = MIO-M1, hypoxia+32-134D, 8 hours, Figure 7G
# [3] = OIR mice P17, single intraocular 32-134D 70 ng/μL at P12
# Sequence of HIF-2α (Q99814 whole entry): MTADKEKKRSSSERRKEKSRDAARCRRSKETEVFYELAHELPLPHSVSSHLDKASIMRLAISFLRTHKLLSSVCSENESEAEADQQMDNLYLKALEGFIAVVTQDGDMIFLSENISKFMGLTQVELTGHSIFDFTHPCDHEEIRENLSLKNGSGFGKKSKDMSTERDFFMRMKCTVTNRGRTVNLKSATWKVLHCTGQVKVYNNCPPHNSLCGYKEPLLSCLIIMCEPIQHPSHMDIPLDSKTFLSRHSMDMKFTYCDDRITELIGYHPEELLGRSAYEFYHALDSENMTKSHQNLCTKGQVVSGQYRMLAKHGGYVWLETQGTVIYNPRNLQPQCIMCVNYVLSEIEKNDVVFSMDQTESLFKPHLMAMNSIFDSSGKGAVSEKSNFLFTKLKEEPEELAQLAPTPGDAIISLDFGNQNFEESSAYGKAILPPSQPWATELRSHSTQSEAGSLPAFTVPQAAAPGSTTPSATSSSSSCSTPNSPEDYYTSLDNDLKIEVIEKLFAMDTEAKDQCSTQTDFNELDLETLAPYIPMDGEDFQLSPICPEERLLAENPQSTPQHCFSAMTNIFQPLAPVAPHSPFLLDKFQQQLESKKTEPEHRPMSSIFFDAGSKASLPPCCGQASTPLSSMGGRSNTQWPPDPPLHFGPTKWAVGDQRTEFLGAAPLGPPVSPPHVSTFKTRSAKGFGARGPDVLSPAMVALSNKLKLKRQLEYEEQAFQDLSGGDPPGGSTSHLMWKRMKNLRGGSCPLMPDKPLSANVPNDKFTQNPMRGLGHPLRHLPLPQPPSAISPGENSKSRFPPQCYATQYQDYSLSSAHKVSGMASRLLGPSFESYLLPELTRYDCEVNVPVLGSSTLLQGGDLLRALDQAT
smiles,measurement,setting,value
"Brc1ccc2c(-c3csc(-c4c[nH]c5c(Br)cccc45)n3)c[nH]c2c1 [32-134D, 4-(6-bromo-1H-indol-3-yl)-2-(7-bromo-1H-indol-3-yl)thiazole]",accumulation of HIF-2α protein,HIF-2α,effectively prevented accumulation
same,HIF-1α expression in neurosensory retina of STZ mice,HIF-1α,inhibits HIF
same,reduction in the Euclidean distance between control and hypoxic cell angiogenic gene expression,"MIO-M1 cells; MIO-M1, from 73 to 31",58%
same,mRNA transcripts of angiogenic genes versus cells cultured in hypoxia (in words),"MIO-M1 cells; MIO-M1, hypoxia + 32-134D",substantially reduced
same,"ANG,RNASE4, angiogenesis array expression (control = 1)",MIO-M1 cells; [2],2.068
same,"ANGPTL1, angiogenesis array expression (control = 1)",MIO-M1 cells; [2],0.8991
same,"ANGPTL4, angiogenesis array expression (control = 1)",MIO-M1 cells; [2],30.9206
same,"CDH5, angiogenesis array expression (control = 1)",MIO-M1 cells; [2],0.6144
same,"CEACAM1, angiogenesis array expression (control = 1)",MIO-M1 cells; [2],1.055
same,"COL15A1, angiogenesis array expression (control = 1)",MIO-M1 cells; [2],1.01
same,"CSF3, angiogenesis array expression (control = 1)",MIO-M1 cells; [2],0.9339
same,"FIGF, angiogenesis array expression (control = 1)",MIO-M1 cells; [2],1.127
same,"HGF, angiogenesis array expression (control = 1)",MIO-M1 cells; [2],0.5689
same,"IL8, angiogenesis array expression (control = 1)",MIO-M1 cells; [2],1.45
same,"TIMP2, angiogenesis array expression (control = 1)",MIO-M1 cells; [2],0.9298
same,"TIMP3, angiogenesis array expression (control = 1)",MIO-M1 cells; [2],0.7612
same,"TNMD, angiogenesis array expression (control = 1)",MIO-M1 cells; [2],0.5729
same,"TNNI1, angiogenesis array expression (control = 1)",MIO-M1 cells; [2],0.511
same,"VEGFA, angiogenesis array expression (control = 1)",MIO-M1 cells; [2],8.239
same,reduction in downregulated DEGs,[1]; [3],93%
same,reduction in upregulated DEGs,[1]; [3],71%
same,upregulated DEGs compared with non-OIR (control) mice,"[1]; OIR mice P17, single intraocular 32-134D 70 ng/μL at P12, 250 in untreated OIR",73
same,downregulated DEGs compared with non-OIR (control) mice,"[1]; OIR mice P17, single intraocular 32-134D 70 ng/μL at P12, 768 in untreated OIR",52
same,"top 37 upregulated DEGs of 4 biological functions (inflammation, angiogenesis, hypoxia, vasculogenesis)","[1]; OIR mice, 32-134D intraocular",normalization
